Data: ChEMBL document CHEMBL1201862, “PubChem BioAssay data set” (2004)
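Following 48 hours of exposure in 96-well plates, responses at five concentrations were used to interpolate endpoints linearly. GI50 = concentration required for 50% inhibition of growth.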 Active and inactive are the calls of the source. Rule as the data show it: active = GI50 up to about 1.1 µM and inactive = higher.

Experiments:
Assay in all cases: NCI tumour cell line growth inhibition, 48 h
ACHN = tested on: ACHN
CCRF-CEM = tested on: CCRF-CEM
COLO 205 = tested on: COLO 205
K562 = tested on: K562
LOX IMVI = tested on: LOX IMVI
NCI-H522 = tested on: NCI-H522
OVCAR-3 = tested on: OVCAR-3
SF-268 = tested on: SF-268
SF-295 = tested on: SF-295
SK-OV-3 = tested on: SK-OV-3
SN12C = tested on: SN12C
SW-620 = tested on: SW-620
UO-31 = tested on: UO-31
CAKI-1 = tested on: CAKI-1
DU-145 = tested on: DU-145
MDA-MB-231 = tested on: MDA-MB-231
MDA-MB-435 = tested on: MDA-MB-435
NCI/ADR-RES = tested on: NCI/ADR-RES
OVCAR-5 = tested on: OVCAR-5

Measured: GI50

CCC(CC)NC1=C(NC(C)=O)C(=O)c2ccccc2C1=O
inactive: ACHN > 50 µM | CCRF-CEM > 50 µM | COLO 205 > 50 µM | K562 > 50 µM | LOX IMVI > 50 µM | NCI-H522 > 50 µM | OVCAR-3 > 50 µM | SF-268 > 50 µM | SF-295 > 50 µM | SK-OV-3 > 50 µM | SN12C > 50 µM | SW-620 > 50 µM | UO-31 > 50 µM

CC1=C(c2ccc(C)cc2)NC(=S)C(C)C(c2ccc(C)cc2)=N1 (configuration not stated)
inactive: ACHN 50.2 µM | CAKI-1 > 100 µM | CCRF-CEM 27.2 µM | COLO 205 > 100 µM | DU-145 > 100 µM | K562 35.8 µM | LOX IMVI 76.2 µM | MDA-MB-231 > 100 µM | MDA-MB-435 72.9 µM | NCI/ADR-RES > 100 µM | OVCAR-5 > 100 µM | SF-268 > 100 µM | SF-295 67.6 µM | SK-OV-3 > 100 µM | SN12C > 100 µM | SW-620 > 100 µM | UO-31 40.5 µM

Cc1c(S(=O)(=O)/N=C(\NN)Nc2ccc(Cl)cc2)sc2ccc(Cl)cc12
inactive: ACHN 16.3 µM | CAKI-1 19 µM | CCRF-CEM 16.3 µM | COLO 205 16.3 µM | DU-145 16.9 µM | K562 24 µM | LOX IMVI 18.6 µM | MDA-MB-231 16.5 µM | NCI-H522 17.3 µM | NCI/ADR-RES 18 µM | OVCAR-3 16.6 µM | OVCAR-5 14.4 µM | SF-268 18.8 µM | SF-295 17.9 µM | SK-OV-3 19.7 µM | SN12C 16.7 µM | SW-620 24 µM | UO-31 19 µM

Clc1ccc(OCc2nnc3sc(SSc4nn5c(COc6ccc(Cl)cc6)nnc5s4)nn23)cc1
inactive: ACHN > 100 µM | COLO 205 > 100 µM | DU-145 > 100 µM | K562 74.3 µM | LOX IMVI > 100 µM | MDA-MB-231 > 100 µM | MDA-MB-435 92.9 µM | NCI-H522 63.1 µM | NCI/ADR-RES > 100 µM | OVCAR-5 > 100 µM | SF-268 > 100 µM | SF-295 > 100 µM | SK-OV-3 > 100 µM | SN12C > 100 µM | SW-620 > 100 µM | UO-31 52 µM

O=C(c1cc(Cl)cc(Cl)c1)N1CCN(C(=O)c2cc(Cl)cc(Cl)c2)C1=S
inactive: ACHN 16 µM | CAKI-1 11.9 µM | CCRF-CEM 2.25 µM | COLO 205 15.9 µM | DU-145 9.18 µM | K562 8.39 µM | LOX IMVI 3.31 µM | MDA-MB-231 15.7 µM | MDA-MB-435 11.7 µM | NCI-H522 4.38 µM | OVCAR-3 10.9 µM | OVCAR-5 20.6 µM | SF-268 13.1 µM | SF-295 20.3 µM | SK-OV-3 16.3 µM | SN12C 11.9 µM | SW-620 12.2 µM | UO-31 2.31 µM

Cc1cc2[n-][n+]3ncc(-c4ccccc4)n3c2cc1[N+](=O)[O-]
inactive: ACHN > 100 µM | CAKI-1 > 100 µM | CCRF-CEM > 100 µM | COLO 205 > 100 µM | DU-145 > 100 µM | K562 > 100 µM | LOX IMVI > 100 µM | MDA-MB-231 > 100 µM | MDA-MB-435 > 100 µM | NCI-H522 > 100 µM | OVCAR-3 > 100 µM | OVCAR-5 > 100 µM | SF-295 > 100 µM | SK-OV-3 > 100 µM | SN12C > 10 µM | SW-620 > 100 µM | UO-31 > 100 µM

N#Cc1c(N)c(-c2ccc(Cl)cc2)c(F)c2ccccc12
inactive: ACHN > 100 µM | CAKI-1 > 100 µM | COLO 205 > 100 µM | K562 > 100 µM | LOX IMVI 94.2 µM | MDA-MB-231 66.2 µM | MDA-MB-435 > 100 µM | NCI-H522 > 100 µM | NCI/ADR-RES > 100 µM | OVCAR-3 > 100 µM | OVCAR-5 > 100 µM | SF-268 9.82 µM | SF-295 > 100 µM | SK-OV-3 > 100 µM | SN12C > 100 µM | SW-620 > 100 µM | UO-31 3.2 µM

O=c1cc(NCc2ccncc2)[nH]c(=O)[nH]1
inactive: ACHN > 100 µM | CAKI-1 > 100 µM | CCRF-CEM > 100 µM | COLO 205 > 100 µM | K562 > 100 µM | LOX IMVI > 100 µM | MDA-MB-231 > 100 µM | MDA-MB-435 > 100 µM | NCI-H522 > 100 µM | NCI/ADR-RES > 100 µM | OVCAR-3 > 100 µM | OVCAR-5 > 100 µM | SF-268 > 100 µM | SF-295 > 100 µM | SK-OV-3 > 100 µM | SN12C > 100 µM | SW-620 > 100 µM | UO-31 > 100 µM

C1CSCCSCCCSCCSCCCSCCSCCCSCCSC1
inactive: ACHN > 100 µM | CAKI-1 > 100 µM | CCRF-CEM > 100 µM | COLO 205 > 100 µM | DU-145 > 100 µM | K562 > 100 µM | LOX IMVI > 100 µM | MDA-MB-435 > 100 µM | NCI-H522 > 100 µM | NCI/ADR-RES > 100 µM | OVCAR-3 > 100 µM | OVCAR-5 > 100 µM | SF-268 > 100 µM | SF-295 > 100 µM | SK-OV-3 > 100 µM | SN12C > 100 µM | SW-620 > 100 µM | UO-31 > 100 µM

CC1(C)CC(C#Cc2ccccc2)CC(C)(C)N1O
inactive: ACHN 25.8 µM | CAKI-1 20.6 µM | CCRF-CEM 39.8 µM | COLO 205 20.6 µM | DU-145 16.1 µM | K562 22.8 µM | LOX IMVI 15.5 µM | MDA-MB-231 15.2 µM | MDA-MB-435 21.6 µM | NCI/ADR-RES 23.9 µM | OVCAR-3 15.9 µM | OVCAR-5 22.1 µM | SF-268 20.7 µM | SF-295 15.6 µM | SK-OV-3 27.1 µM | SN12C 15.1 µM | SW-620 19.6 µM | UO-31 12.2 µM

O=C(c1c(F)c(F)c(F)c(F)c1F)n1c(=S)n(C(=O)c2c(F)c(F)c(F)c(F)c2F)c2ccccc21
inactive: ACHN > 100 µM | CCRF-CEM 12.3 µM | COLO 205 49.9 µM | DU-145 80.5 µM | K562 22.2 µM | LOX IMVI 35.7 µM | MDA-MB-231 > 100 µM | MDA-MB-435 > 10 µM | OVCAR-5 > 100 µM | SF-268 39.9 µM | SF-295 > 100 µM | SK-OV-3 > 100 µM | SN12C > 100 µM | SW-620 46.5 µM | UO-31 > 100 µM

O=C(CN1CCN(c2ccccc2)CC1)c1ccc2[nH]c(=O)oc2c1
inactive: ACHN > 100 µM | CAKI-1 > 100 µM | CCRF-CEM > 100 µM | COLO 205 > 100 µM | DU-145 > 100 µM | K562 > 100 µM | LOX IMVI > 100 µM | MDA-MB-231 83.4 µM | MDA-MB-435 > 100 µM | NCI/ADR-RES 49.5 µM | OVCAR-3 > 100 µM | OVCAR-5 > 100 µM | SF-268 > 100 µM | SF-295 > 100 µM | SK-OV-3 > 100 µM | SN12C > 100 µM | SW-620 > 100 µM
